Data on 2 compounds can be found in patent US20030060481A1 (priority 1999, published 2003).

Assay [1] concerns kainate model of epilepsy. As to the kind of experiment: Onset of spontaneous recurrent seizures in the kainate model of epilepsy.
Assay [2] deals with Wistar, adult, male, rats. As to the kind of experiment: Induction of status epilepticus by systemic pilocarpine. In kind it is in vivo. As to conditions: pilocarpine 320 mg/Kg intraperitoneal.

Turning to `CN1[C@@H]2C[C@@H](OC(=O)[C@H](CO)c3ccccc3)C[C@H]1[C@@H]1O[C@@H]12` [scopolamine], the “Effect on onset of spontaneous recurrent seizures (in words)” value in assay [1] is “retard or even suppress the onset of spontaneous recurrent seizures”. Regarding `CC[C@@H]1C(=O)OC[C@@H]1Cc1cncn1C` [pilocarpine], the “Latency for the onset of status epilepticus after injection” value in assay [2] was determined as 19 ± 5 min.
